Measurements reported in PMC10010340, “The Wnt Pathway Inhibitor RXC004 Blocks Tumor Growth and Reverses Immune Evasion in Wnt Ligand–dependent Cancer Models” (Cancer Research Communications, 2022).

Tests used:
HCT116 xenograft = test: Xenograft pilot study; type: in vivo, mouse (athymic nude); conditions: HCT116, 1.5 mg/kg twice daily oral, 28 days
Description: (§1) The in vivo pilot studies were performed at Axis Bioservices. HPAF-II (5 × 10^6 cells; athymic nude mice), AsPC1 (3 × 10^6 cells; athymic nude mice), and SNU-1411 (1 × 10^7 cells; NOD-SCID mice) were implanted bilaterally, subcutaneously, whereas HCT116 (3 × 10^6 cells; athymic nude mice) were implanted in a single flank. Animals were randomized into the indicated groups and treatment initiated once tumor volumes reached approximately 100–150 mm^3. Dosing was either 1.5 mg/kg twice daily RXC004 for 7–13 days then once daily for the remainder of study (up to 29 days), or 28 days 1.5 mg/kg twice daily RXC004 for HCT116. In these and all other animal studies, unless otherwise specified, RXC004 was dosed orally in 0.5% carboxymethylcellulose + 0.1% Tween-80. For AsPC1, an ascites model, end of study tumor weight (mg) was measured. A total of 12 hours after the final dose, RNA was extracted [GenElute RNA isolation kit (#RTN70, Sigma)] from snap frozen tumor for qRT-PCR expression analysis of Axin2, c-Myc, RNF43, MUC4, and MUC5AC relative to appropriate housekeepers.

HPAF-II xenograft = test: Xenograft pilot study; type: in vivo, mouse (athymic nude); conditions: 1.5 mg/kg twice daily oral
Description: as §1

AsPC1 xenograft = test: Xenograft pilot study; type: in vivo, mouse (athymic nude); conditions: AsPC1, 1.5 mg/kg twice daily oral
Description: as §1

recombinant CYP enzymes = test: Recombinant CYP enzyme assays (metabolism); type: in vitro ADME
[1] = tested on: Wnt5a secretion from L-Wnt5a cells; test: Wnt secretion assay; type: cell-based; conditions: 300 nmol/L, 48 hours
Description: L-Wnt5a cells (L cells overexpressing Wnt5a; ATCC CRL-2814) were treated with RXC004 (300 nmol/L) or DMSO for 48 hours. Wnt5a secreted into media was detected by Western blotting using anti-Wnt5a antibody (Cell Signaling Technology #2530).

HPAF-II cells [2] = test: Caspase 3/7 analysis; type: cell-based, human; conditions: 100nM, 7 days
Description: (§2) Cells were treated with RXC004 (100 nmol/L) or DMSO (0.02%) for 7 days. Caspase 3/7 activity was measured using Caspase-Glo 3/7 Assay System (Promega #G8091) and data were plotted as a ratio relative to cell number as quantified using ATPlite 1-Step Reagent (Perkin Elmer #6016731).

SNU-1411 cells = test: Caspase 3/7 analysis; type: cell-based, human; conditions: SNU-1411, 100nM, 7 days
Description: as §2

SNU-1411 xenograft = SNU-1411 xenograft dose-response study; type: in vivo, mouse (NOD-SCID); conditions: day 19; 1.5 and 5 mg/kg once daily, 1.5 mg/kg twice daily continuous or 5-day on/2-day off
Description: To explore dose–response effects in vivo, SNU-1411 (1 × 10^7 cells) were implanted into NOD-SCID mice subcutaneously at Axis Bioservices. Animals were randomized into the indicated groups and oral dosing of RXC004 was initiated when tumors reached approximately 200 mm^3. Tumor volume measurements were taken at day 19, n ≥9 per group. Pharmacokinetic/pharmacodynamic analysis in SNU1411/NOD-SCID mice was performed in a separate study at Axis Biosciences, with tissue and plasma extracted for assessments after 7 days of RXC004 dosing. Tumor was divided into two sections; one section snap frozen and the other processed by FFPE. RXC004 levels were determined in snap frozen tumor and blood samples by LC/MS-MS. Expression analysis of the indicated genes was performed on snap frozen tumor as described above. Serial FFPE tumor sections were stained with H&E, anti-Ki67 (Abcam #Ab15580) or the dual mucin stain Alcian-blue/periodic acid shift (AB-PAS) at Histologix. IHC images were quantified using HALO software and modules (Indica Labs). The AB-PAS images were analyzed with the area quantification module on tumor area. […] The Ki67 images were analyzed with the multiplex IHC module and number of Ki67-positive cells were determined per mm^2 of total or differentiated tumor area.

HPAF-II cells [3] = test: Cell-cycle analysis, phospho-Ser10 histone H3 flow cytometry; type: cell-based, human; conditions: 100 nmol/L, representative plot (DMSO 2.03%)
Description: For concentration–response effects on gene expression, Single-Shot Cell Lysis kit (Bio-Rad #172-5080) was used for RNA extraction, data were normalized to DMSO-treated controls, and IC50 values determined. For cell-cycle analysis, the cancer cell line panel was treated with RXC004 (100 nmol/L) or DMSO (0.1%) for 3 days. Cell-cycle profiles were determined by staining with propidium iodide (Thermo Fisher Scientific #P3566) and phospho-Ser10-Histone-H3 (AlexaFluor-647, BioLegend #650806), and quantified using an Agilent Novocyte-3000 flow cytometer. For in vitro growth curve analysis, HPAF-II and SNU-1411 cells were seeded in 96-well plates at 2,000 cells/well and imaged on the IncuCyte (Sartorius) at 10× magnification with 4 fields of view per well. Total cell object count over time was calculated using the Adherent Cell-by-Cell analysis module.

MDR1 = test: Permeability in MDR1-MDCKII cells; type: in vitro ADME; conditions: dog, MDCK-MDR1, 10 μmol/L, 2 hours
Description: (§3) Permeability of RXC004 was assessed in MDR1-MDCKII (Netherlands Cancer Institute) and Caco-2 cells (Merck Life Sciences). RXC004 (10 μmol/L) was added to either apical or basolateral chamber for 2 hours at 37°C, then an aliquot from the opposite side of the monolayer was removed and quantified by LC/MS-MS. Apparent permeability (Papp) was calculated according to standard practice ([20]).

MDR1-MDCKII cells = test: Permeability in MDR1-MDCKII cells; type: in vitro ADME; conditions: MDR1-MDCKII cells
Description: as §3

Microsomal stability = type: in vitro ADME, dog (Beagle); conditions: Dog, 1 μmol/L
Description: Metabolic stability: liver microsomes and hepatocytes from human, mouse (CD1), rat (Sprague Dawley) and dog (Beagle) were obtained from Invitrogen. RXC004 (1 μmol/L) was incubated at 37°C with microsomes (0.5 mg · mL^−1) or hepatocytes (0.5 × 10^6 cells · mL^−1). Aliquots were removed at 0–45 minutes and RXC004 concentrations determined by LC/MS-MS analysis. Half-life (T1/2) and intrinsic clearance (CLint) were calculated as described in ref. [18].

Cc1c(-c2ccnc(C(F)(F)F)c2)ncn1CC(=O)Nc1ccc(-c2cnccn2)cn1 [RXC004, 2-[5-methyl-4-[2-(trifluoromethyl)-4-pyridyl]imidazol-1-yl]-N-(5-pyrazin-2-yl-2-pyridyl)acetamide]
tumor growth (HCT116 xenograft): No effect
Wnt-responsive gene expression in tumor including c-Myc (HPAF-II xenograft): inhibition of Wnt-responsive gene expression
tumor growth (HPAF-II xenograft): reduction in tumor growth
Wnt-responsive gene expression in tumor including c-Myc (AsPC1 xenograft): inhibition of Wnt-responsive gene expression
tumor growth (tumor weight) (AsPC1 xenograft): reduction in tumor growth
metabolizing CYP enzyme (recombinant CYP enzymes): exclusively metabolized by CYP3A4
Wnt5a secretion into the media [1]: inhibited Wnt5a secretion
relative Caspase 3/7 activity (HPAF-II cells [2]): no effect
relative Caspase 3/7 activity (SNU-1411 cells): no effect
tumor volume (SNU-1411 xenograft): Significant reduction in tumor volume
pH3+ (percentage phospho-Ser10 histone H3 positive cells) (HPAF-II cells [3]): 0.28%
Papp A→B at 2 h, 10 μmol/L (MDR1; apical to basolateral, read-out: MDCK PappA-B): 15 ×10⁻⁶ cm/s
Papp B→A at 2 h, 10 μmol/L (MDR1; basolateral to apical, read-out: MDCK PappB-A): 51.9 ×10⁻⁶ cm/s
efflux (MDR1-MDCKII cells): some evidence of efflux in MDR1-MDCKII cells
Microsomal stability: CLint (Microsomal stability): 31.6 μL minute^−^1 · mg^−^1
